{"source": "patent US7736638B2", "about": "“Interleukin-15 antagonist peptide” (Centro de Ingenieria Genetica y Biotecnologia, priority 2004, dated 2010)", "key": {"IL-15Rα-Fc": {"biological_target": "IL-15Rα-Fc (Homo sapiens, UniProt Q13261)", "sequence (Q13261 with tags, fused parts or gaps limits assumed)": "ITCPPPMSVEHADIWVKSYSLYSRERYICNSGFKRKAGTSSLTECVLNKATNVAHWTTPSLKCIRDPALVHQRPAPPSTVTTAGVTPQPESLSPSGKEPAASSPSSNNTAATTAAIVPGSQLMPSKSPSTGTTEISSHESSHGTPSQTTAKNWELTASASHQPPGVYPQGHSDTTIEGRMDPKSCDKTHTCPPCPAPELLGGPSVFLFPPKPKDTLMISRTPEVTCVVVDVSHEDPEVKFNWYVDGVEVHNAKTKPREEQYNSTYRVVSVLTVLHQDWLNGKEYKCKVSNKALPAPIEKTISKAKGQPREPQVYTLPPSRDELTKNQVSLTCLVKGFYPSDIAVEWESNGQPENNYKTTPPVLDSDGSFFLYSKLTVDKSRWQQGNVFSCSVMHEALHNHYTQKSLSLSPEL", "experiment": "IL-15 peptide spot mapping on cellulose filter, binding of IL-15Rα-Fc", "settings": "10-mer peptides on cellulose membrane; IL-15 α-Receptor at 5 μg/mL; blue/violet color = positive; listed as 8", "method": "To identify IL-15 regions involved in IL-15Rα binding, the peptide spot synthesis approach was used as previously described Frank et. al. The derivation of Whatman 540 paper was carried out estherifying the first anchor component, Fmoc-β-Ala-OH, using N,N′-Diisopropylcarbodiimide (DIC) and N-methylimidazole (NMI) in dry N,N-dimethylformamide (DMF). The spot array on the cellulose membrane was defined anchoring the Fmoc-β-Ala-OH on the previously marked positions, according to the required number of 10-mer peptides (22 peptides, overlapping in 5 residues, 114 amino acids of IL-15 sequence). Besides, a non-related 10 amino acids peptide was synthesized on spot 23 and also on spot 24 only Fmoc-β-Ala-OH was anchoring, both as controls. For the assembly of all these molecules, the standard Fmoc-/tBu chemistry was used. After the final cycle of synthesis, the N-terminus and side chains of all peptides were de-protected.\nCellulose sheet was soaked in ethanol to prevent possible hydrophobic interactions between the peptides on it. Ethanol was exchanged against Tris-buffer saline (TBS) (150 mM NaCl, 10 mM Tris, pH 7.6) by sequential washing. Nonspecific binding was blocked by incubating membrane overnight in 10 mL of TBS blocking buffer (5% Powdered milk in TBS). […]"}, "[1]": {"biological_target": "T1, IL-15Rα-Fc fusion protein (R&D 147-IR) (Homo sapiens, UniProt Q13261)", "T1 construct": "purchased R&D 147-IR", "T1 sequence (Q13261 with tags, fused parts or gaps limits assumed)": "as above", "experiment": "Colorimetric assay in Tentagel S beads, peptide binding to IL-15Rα", "settings": "resin-bound peptide, IL-15Rα-Fc at 5 μg/mL", "method": "The resin NH2-Tentagel-S (0.24 mmol/g) was washed several times with di-chlorometane (DCM) and methanol. Then, it was incubated in a trifluoroacetic acid (TFA) solution 30% for 10 minutes; washed several times with DCM and incubated in di-isopropilethilamine (DIEA) 5% in DCM for 1 minute. This procedure activated the NH2 groups for synthesis. Later, it was washed with DCM and incubated in di-methylformamide (DMF) for 5 minutes to synthesize the peptide. The conventional Fmoc/tBu strategy of synthesis was used. Coupling reactions were followed by ninhidrine test. Once peptide Sec. No.1 sequence was completed, amino acids side chains were de-protected, leaving it anchored by its C-terminal to the resin.\nResin beads with anchored peptide were several times washed with saline solution (PBS). Non specific interactions were blocked with BSA (1%) in PBS for 1 hour at RT. Then, they were incubated with IL-15Rα-Fc fusion protein (R&D 147-IR) at 5 μg/mL in BSA (1%/PBS) for 16 hours at 4° C. Later, beads were washed in PBS three fold for 5 minutes with shaking and then incubated with anti-Fc IgG human-phosphatase conjugate diluted 1:25000 in BSA (1%/PBS) for three hours at RT. They were extensively washed with a saline solution (TBS/Tween-20, 1%) and incubated with BCIP (0.45 mg/mL) in substrate solution (100 mM Tris, pH 8.9; 100 mM NaCl; 2 mM MgCl2) for approximately 30 minutes. […]"}, "[2]": {"system": "IL-15-induced proliferation of CTLL-2 cells", "experiment": "CTLL-2 proliferation assay with human IL-15 (MTT staining)", "format": "cell-based", "settings": "fixed peptide concentration 260 μM", "method": "The cytokine-dependent cell line CTLL-2 proliferates in presence of IL-15. IL-15 bound molecules impairing receptor depending signal transduction would inhibit this cell line proliferation. To evaluate the neutralizing capacity the peptide of the present invention, serial dilutions of them were done in 96 well plates (Costar, USA) in 25 μL volume of RPMI medium (Gibco) supplemented with 10% fetal bovine serum (Gibco). Previously washed CTLL-2 cells were added to 5×10^3 cells/well and it was incubated for 30 min. Then, 300 pg of IL-15 were added to each well. Plate was incubated for 72 h at 5% CO2 and 37° C. […] We also evaluated the antagonist effect of 260 μM of this peptide at different IL-15 concentrations (FIG. 3a)."}, "[3]": {"system": "TNFα-induced apoptosis in L929 cells", "experiment": "Apoptosis induction assay in L929 cells (DNA fragmentation assay)", "format": "cell-based", "settings": "TNFα 100 ng/mL, peptide 260 μM, 24 h", "method": "The DNA Fragmentation Assay allows to determine the amount of DNA that is degraded upon treatment of cells with TNF-alpha. The cells' DNA is radioactively labeled by growing the cells in presence of 3H-Thymidine so that radioactive 3H-Thymidine is incorporated into the DNA. After 24 h the cells were treated with Tripsin/EDTA, washed and seeded at 5000 cells per well in a 96 well plate. Then, the labeled cells were incubated with TNFα (100 ng/mL), IL-15 (100 ng/mL), peptides (260 μM) or combinations of TNFα with different peptides.\nDuring this incubation the added agent (e.g. TNFα induces cells to die by apoptosis and consequently the fragmentation of DNA while the DNA of untreated cells remains intact). After 24 h the cells were harvested: during harvesting, the cells were washed out of the wells of the 96 well plate with bidestilated water: the cells and organelles burst and the cell's DNA is set free. The cell fragments and DNA are passed through a filter membrane (glassfiber). Only particles of smaller than 1,5 μm can pass the filter. […] The filter membrane was dried and the amount of radioactivity (what corresponds to the amount of intact DNA) counted in a scintillation counter. The percentage of DNA fragmentation was calculated by comparing the counted radioactivity (counts per minute=cpm) of cells that were not treated with the cpm in cells that were treated with agent."}}, "note": "“Also recorded” adds a separate entry of the source. Ends that are not written are not given here.", "data": [{"substance": "KVTAMKCFLL-NH2 [SEQ ID NO: 1]", "values": [{"measurement": "recognition of the peptide spot by IL-15Rα-Fc", "setting": "IL-15Rα-Fc", "result": "recognizes; also recorded: recognition"}, {"measurement": "color development in beads incubated with IL-15Rα-Fc", "setting": "[1]", "result": "intense blue color"}, {"measurement": "color development in beads incubated with IL-15Rα-Fc in presence of an excess of human IL-15", "setting": "[1]; excess of IL-15 (competition)", "result": "did not observed color"}, {"measurement": "antagonist effect of the peptide at different IL-15 concentrations", "setting": "[2]", "result": "dependent on IL-15 doses"}, {"measurement": "protection from TNFα-induced apoptosis (DNA fragmentation)", "setting": "[3]", "result": "protected form TNF induced apoptosis"}]}]}
